These results are taken from PMC8197855, “Peptide/β-Peptoid Hybrids with Activity against Vancomycin-Resistant Enterococci: Influence of Hydrophobicity and Structural Features on Antibacterial and Hemolytic Properties” (International Journal of Molecular Sciences, 2021).

Assay [1] concerns E. faecium ATCC 19434. Kind of assay: microbe, parasite or virus in culture. In kind it is cell-based, Enterococcus faecium. Particulars: Enterococcus faecium, ATCC19434, 24 h, read-out: Minimum inhibitory concentration. How it is done: (§1) Overnight cultures of the enterococcal isolates were diluted in physiological saline (0.9% NaCl) to reach a turbidity of 0.5 McFarland units (Sensititre® nephelometer and the Sensititre® McFarland Standard). Bacterial suspensions were adjusted to 5 × 10^5 CFU/mL in MHB II or BHI broth containing two-fold dilutions of peptidomimetics or conventional antibiotics in a final volume of 100 µL. The plates were incubated for 24 h at 37 °C without shaking. […] All experiments were performed in three biological replicates. […]

The test system of assay [2] is E. faecalis ATCC 29212. Kind of assay: Broth checkerboard assay with conventional antibiotics. Type of assay: cell-based, Enterococcus faecalis. The note with it: antibiotic alone (-); BHI broth. The method, then: (§2) The strain culture preparation and final volume were the same as in the MIC assay. […] The plates were incubated for 24 h at 37 °C without shaking. […] All experiments were performed in two biological replicates.
(§3) To evaluate the effect of the combinations, the fractional inhibitory concentration index (FICI) was calculated for each combination according to:ΣFIC = FICA + FICB = (CA/MICA) + (CB/MICB)
(§4) The drug interaction was scored as follows: synergy—FICI ≤ 0.5; no interaction—FICI > 0.5–4; antagonism—FICI > 4 [40].

Assay [3] has as its system E. faecium 2961. The description is as above. In kind it is cell-based, Enterococcus faecium. Particulars: antibiotic alone (-); BHI broth. The method, then:
as §2, §3, §4

Assay [4] concerns E. faecium ATCC 19434. The assay is described as above. Type of assay: cell-based, Enterococcus faecium. The note with it: antibiotic alone (-); BHI broth. The method, then: as §2, §3, §4
Assay [5] has as its system E. faecium 1798. The assay is described as above. The note with it: antibiotic alone (-); BHI broth. Type of assay: cell-based, Enterococcus faecium. The method, then:
as §2, §3, §4

The subject of the next assay is E. faecalis 39002. Kind of assay: microbe, parasite or virus in culture. In kind it is cell-based, Enterococcus faecalis. Particulars: Enterococcus faecalis, 39002, 24 h, read-out: Minimum inhibitory concentration. The method, then:
(§5) Overnight cultures of the enterococcal isolates were diluted in physiological saline (0.9% NaCl) to reach a turbidity of 0.5 McFarland units (Sensititre® nephelometer and the Sensititre® McFarland Standard). Bacterial suspensions were adjusted to 5 × 10^5 CFU/mL in MHB II or BHI broth containing two-fold dilutions of peptidomimetics or conventional antibiotics in a final volume of 100 µL. The plates were incubated for 24 h at 37 °C without shaking. […] All experiments were performed in three biological replicates.

The test system of the next assay is E. faecalis 38262. In words: microbe, parasite or virus in culture. In kind it is cell-based, Enterococcus faecalis. The note with it: Enterococcus faecalis, 38262, 24 h, read-out: Minimum inhibitory concentration. How it is done: as §5
Assay [6] deals with E. faecium 2961. In words: microbe, parasite or virus in culture. In kind it is cell-based, Enterococcus faecium. Particulars: Enterococcus faecium, 2961, 24 h, read-out: Minimum inhibitory concentration. How it is done: as §5
The test system of assay [7] is E. faecium 1798. In words: microbe, parasite or virus in culture. Type of assay: cell-based, Enterococcus faecium. The note with it: Enterococcus faecium, 1798, 24 h, read-out: Minimum inhibitory concentration. How it is done:
as §5

Another assay has as its system E. faecium 3978. Kind of assay: microbe, parasite or virus in culture. In kind it is cell-based, Enterococcus faecium. Particulars: Enterococcus faecium, 3978, 24 h, read-out: Minimum inhibitory concentration. The method, then: as §5
In the next assay the test system is E. faecium D344R. In words: microbe, parasite or virus in culture. Particulars: Enterococcus faecium, D344R, 24 h, read-out: Minimum inhibitory concentration. Type of assay: cell-based, Enterococcus faecium. How it is done:
as §5

Assay [8] has as its system E. faecalis ATCC 29212. In words: microbe, parasite or virus in culture. In kind it is cell-based, Enterococcus faecalis. Particulars: Enterococcus faecalis, ATCC29212, 24 h, read-out: Minimum inhibitory concentration. The method, then: as §1

The structures appear in SMILES notation. In brackets after ≈: the same amount, converted by molar mass.

Consider `CN[C@H](CC(C)C)C(=O)N[C@H]1C(=O)N[C@@H](CC(N)=O)C(=O)N[C@H]2C(=O)N[C@H]3C(=O)N[C@H](C(=O)N[C@H](C(=O)O)c4cc(O)cc(O)c4-c4cc3ccc4O)[C@H](O)c3ccc(c(Cl)c3)Oc3cc2cc(c3O[C@@H]2O[C@H](CO)[C@@H](O)[C@H](O)[C@H]2O[C@H]2C[C@](C)(N)[C@H](O)[C@H](C)O2)Oc2ccc(cc2Cl)[C@H]1O` [Vancomycin, vancomycin], for which the MIC in the assay with E. faecium ATCC 19434 [1] is 1 to 2 µg/mL (≈ 0.69 to 1.38 µM); in the assay with E. faecalis 39002, 1 µg/mL (≈ 0.69 µM); in the assay with E. faecalis 38262, 1 µg/mL (≈ 0.69 µM); in the assay on E. faecium 2961 [6] it was > 256 µg/mL; in the assay with E. faecium 1798 [7] it was > 256 µg/mL; with E. faecium 3978, 16 µg/mL (≈ 11 µM). Further, the MIC is 2 µg/mL (≈ 1.38 µM) in the assay with E. faecium D344R and 2 to 4 µg/mL (≈ 1.38 to 2.76 µM) in the assay on E. faecalis ATCC 29212 [8]. The MIC of antibiotic is 2 to 4 µg/mL with E. faecalis ATCC 29212 [2], > 256 µg/mL with E. faecium 2961 [3], 1 to 2 µg/mL in the assay on E. faecium ATCC 19434 [4] and > 256 µg/mL in the assay with E. faecium 1798 [5].
